Reference: patent publication US9255101B2 (BIOPROJECT, priority 2012, dated 2016)
pKi: −log10 of the molar value.

Columns and labels:
[1] = biological target: human H4 receptor (Homo sapiens, UniProt Q9H3N8); experiment: biochemical;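 further: radioligand displacement of a [3H]-labelled ligand from membranes of CHO cells stably expressing human H4 receptor, bound radioactivity counted on filters by liquid scintillation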
Chain of human H4 receptor (Q9H3N8 whole entry): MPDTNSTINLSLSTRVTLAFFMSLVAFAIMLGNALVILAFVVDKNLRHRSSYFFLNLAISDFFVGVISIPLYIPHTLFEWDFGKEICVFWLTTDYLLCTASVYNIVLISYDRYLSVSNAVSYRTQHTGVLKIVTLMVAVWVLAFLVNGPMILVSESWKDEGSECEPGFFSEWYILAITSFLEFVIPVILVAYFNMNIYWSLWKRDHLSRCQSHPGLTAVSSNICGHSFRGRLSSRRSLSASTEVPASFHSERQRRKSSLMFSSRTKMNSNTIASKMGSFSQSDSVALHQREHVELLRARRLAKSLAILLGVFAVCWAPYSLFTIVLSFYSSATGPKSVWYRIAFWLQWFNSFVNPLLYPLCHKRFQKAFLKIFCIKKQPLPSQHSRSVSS

Q: With CCCNC(=O)Nc1ccc(-c2cn3c(n2)C(OC2CCN(C)CC2)c2ccccc2CC3)cc1 (centres unmarked) [Example 60, 1-{4-[4-(1-methylpiperidin-4-yloxy)-9,10-dihydro-4H-3,10a-diaza-benzo[f]azulen-2-yl]-phenyl}-3-propyl-urea] as the compound, how does the pKi [1] read?
A: Its pKi is > 6.52.

Q: What about the melting point of the same compound?
A: Its melting point is 130 °C.

Q: With CN1CCC(OC2c3ccccc3CCn3cc(-c4ccc(N)cc4)nc32)CC1 (centres unmarked) [Example 16, 4-[4-(1-methylpiperidin-4-yloxy)-9,10-dihydro-4H-3,10a-diaza-benzo[f]azulen-2-yl]-phenylamine] as the compound, how does the pKi [1] read?
A: The pKi was > 6.00.

Q: And the melting point?
A: Its melting point is 197 °C.

Q: With Cc1c(I)nc2n1CCc1ccccc1C2OC1CCN(C)CC1 (centres unmarked) [Example 133, 2-iodo-1-methyl-4-(1-methylpiperidin-4-yloxy)-9,10-dihydro-4H-3,10a-diaza-benzo[f]azulene] as the compound, how does the pKi [1] read?
A: The pKi was > 6.52.

Q: And the melting point?
A: The melting point was 59 °C.

Q: Which results are given for Cc1c(C(=O)N(C)Cc2ccccc2)nc2n1CCc1ccccc1C2OC1CCN(C)CC1 (centres unmarked) [Example 203, 1-methyl-4-(1-methylpiperidin-4-yloxy)-9,10-dihydro-4H-3,10a-diaza-benzo[f]azulene-2-carboxylic acid benzylmethylamide]?
A: pKi [1]: > 6.00; melting point: 61 °C

Q: With CN1CCC(OC2c3cccc(-c4cccc(N)c4)c3CCn3cc(-c4ccccc4)nc32)CC1 (centres unmarked) [Example 242, 3-[4-(1-methylpiperidin-4-yloxy)-2-phenyl-9,10-dihydro-4H-3,10a-diaza-benzo[f]azulen-8-yl]-phenylamine] as the compound, how does the pKi [1] read?
A: The pKi was > 6.00.

Q: And the melting point?
A: The melting point was 120 °C.

Q: Which results are given for CN1CCC(OC2c3cccc(-c4ccc(F)cc4)c3CCn3cc(-c4ccccc4)nc32)CC1 (centres unmarked) [Example 240, 8-(4-fluorophenyl)-4-(1-methylpiperidin-4-yloxy)-2-phenyl-9,10-dihydro-4H-3,10a-diaza-benzo[f]azulene]?
A: pKi [1]: > 6.52; melting point: 95 °C

Q: Which results are given for COc1cccc(-c2cccc3c2CCn2cc(-c4ccccc4)nc2C3OC2CCN(C)CC2)c1 (centres unmarked) [Example 241, 8-(3-methoxyphenyl)-4-(1-methylpiperidin-4-yloxy)-2-phenyl-9,10-dihydro-4H-3,10a-diaza-benzo[f]azulene]?
A: pKi [1]: > 6.52; melting point: 93 °C

Q: With COc1ccccc1-c1nc2n(c1C)CCc1ccccc1C2OC1CCN(C)CC1 (centres unmarked) [Example 149, 2-(2-methoxyphenyl)-1-methyl-4-(1-methylpiperidin-4-yloxy)-9,10-dihydro-4H-3,10a-diaza-benzo[f]azulene] as the compound, how does the pKi [1] read?
A: Its pKi is > 6.52.

Q: And the melting point?
A: The melting point was 139 °C.

Q: With C=CCCc1cccc2c1CCn1cc(-c3ccccc3)nc1C2OC1CCN(C)CC1.O=C(O)C(=O)O (centres unmarked) [Example 237, 8-but-3-enyl-4-(1-methylpiperidin-4-yloxy)-2-phenyl-9,10-dihydro-4H-3,10a-diaza-benzo[f]azulene, oxalate] as the compound, how does the pKi [1] read?
A: Its pKi is > 6.00.

Q: What about the melting point of the same compound?
A: The melting point was 107 °C.

Q: With Cc1c(C(=O)N(C)c2ccccc2)nc2n1CCc1ccccc1C2OC1CCN(C)CC1 (centres unmarked) [Example 204, 1-methyl-4-(1-methylpiperidin-4-yloxy)-9,10-dihydro-4H-3,10a-diaza-benzo[f]azulene-2-carboxylic acid methylphenylamide] as the compound, how does the pKi [1] read?
A: The pKi was > 6.00.

Q: And the melting point?
A: The melting point was 75 °C.

Q: Which results are given for CN1CCC(OC2c3ccccc3CCn3c2nc(-c2ccccc2)c3-c2ccccc2)CC1 (centres unmarked) [Example 252, 4-(1-methylpiperidin-4-yloxy)-1,2-diphenyl-9,10-dihydro-4H-3,10a-diaza-benzo[f]azulene]?
A: pKi [1]: > 6.52; melting point: 90 °C

Q: With CN1CCC(OC2c3cccc(Br)c3CCn3cc(-c4ccccc4)nc32)CC1 (centres unmarked) [Example 231, 8-Bromo-4-(1-methyl-piperidin-4-yloxy)-2-phenyl-9,10-dihydro-4H-3,10a-diaza-benzo[f]azulene] as the compound, how does the pKi [1] read?
A: The pKi was > 6.52.

Q: And the melting point?
A: Its melting point is 83 °C.

Q: With CN1CCC(OC2c3ccccc3CCn3cc(-c4ccc(NC(=O)C(C)(C)C)cc4)nc32)CC1 (centres unmarked) [Example 58, 2,2-dimethyl-N-{4-[4-(1-methylpiperidin-4-yloxy)-9,10-dihydro-4H-3,10a-diaza-benzo[f]azulen-2-yl]-phenyl}-propionamide] as the compound, how does the pKi [1] read?
A: The pKi was > 6.52.

Q: And the melting point?
A: The melting point was 120 °C.
